Data reported in PubChem BioAssay (NCI).
Where “and” joins values, the source holds several entries; their conditions need not be identical. Equal values may be shown once.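 Tested at 5 concentrations; 48 h exposure; 96-well plates; endpoints linearly interpolated, else capped at highest concentration. GI50 marks 50% less growth. The concentration for full growth arrest is given as TGI.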

Columns and labels:
Assay in all cases: NCI anticancer screen, dose series, 48 h
BT-549 breast = test system: BT-549 breast
786-0 renal = test system: 786-0 renal
OVCAR-4 ovarian = test system: OVCAR-4 ovarian
SNB-75 CNS = test system: SNB-75 CNS
NCI-H23 lung = test system: NCI-H23 lung
NCI-H226 lung = test system: NCI-H226 lung
MDA-N = test system: MDA-N
NCI-H460 lung = test system: NCI-H460 lung
MCF7 breast = test system: MCF7 breast
SW-620 colon = test system: SW-620 colon
NCI/ADR-RES ovarian = test system: NCI/ADR-RES ovarian
HOP-62 NSCLC = test system: HOP-62 NSCLC

SMILES | TGI (BT-549 breast) [µM] | TGI (786-0 renal) [µM] | TGI (OVCAR-4 ovarian) [µM] | TGI (SNB-75 CNS) [µM] | TGI (NCI-H23 lung) [µM] | TGI (NCI-H226 lung) [µM] | TGI (MDA-N) [µM] | TGI (NCI-H460 lung) [µM] | TGI (MCF7 breast) [µM] | TGI (SW-620 colon) [µM] | TGI (NCI/ADR-RES ovarian) [µM] | TGI (HOP-62 NSCLC) [µM] | GI50 (OVCAR-4 ovarian)
CN1C(C)(C)CC(=O)C(Br)C1(C)C (stereo not given) | > 100 | > 100 | > 100 | > 100 | > 100 | > 100 | > 100 | > 100 | > 100 | > 100 | > 100 | > 100 | –
O=c1oc2ccc3ccccc3c2cc1-c1cn2c(n1)sc1ccccc12 | > 100 | > 100 | > 100 | > 100 | > 100 | > 100 | > 100 | > 100 | > 100 | > 100 | > 100 | > 100 | –
CC(CNC(=O)c1ccccc1)(CNC(=O)c1ccccc1)[N+](=O)[O-] | > 100 | > 100 | – | > 100 | > 100 | > 100 | > 100 | > 100 | > 100 | > 100 | > 100 | – | –
CC(=O)OCC1OC(OC(C)=O)C(Nc2ncc(-c3ccc(C)cc3)s2)C(OC(C)=O)C1OC(C)=O (stereo not given) | 36.7 | 40.1 | 35.4 | 37.6 | 31.9 | 50.4 | 35.3 | 40.7 | 52.1 | 45.4 | 76.8 | 42.2 | –
CCCCCCCCCCCCCCCC(=O)Nc1ccn(C2CCC(COP(=O)(O)OCC3OC(n4cc(F)c(=O)[nH]c4=O)CC3OC(C)=O)O2)c(=O)n1 (stereo not given) | 58.4 | > 100 | > 86.5 | > 67.1 | 47.9 | > 100 | 50.4 | > 100 | 44.1 | > 52.5 | > 100 | 37.7 | –
CC[C@@H]1CC[C@@H]2[C@H](CC[C@]3(C)[C@@H](OC(C)=O)CC[C@@H]23)[C@H]1C(=O)OC | > 100 | 47.3 | 52.8 | 69 | 59.6 | 38 | 41.4 | 51.6 | 60.3 | 48.8 | 68.5 | 53.7 | –
O=C1CCSc2nc(-c3ccc4c(c3)OCO4)nn21 | > 10 | > 10 | > 10 | > 10 | > 10 | > 10 | > 10 | > 10 | > 10 | > 10 | > 10 | > 10 | –
CC(C)CC(NC=O)C(=O)NC(Cc1ccccc1)NC(=O)CNC(=O)C(C)NC(=O)C(N)Cc1ccc(O)cc1 (stereo not given) | > 100 | > 100 | > 100 | > 100 | > 100 | > 100 | > 100 | > 100 | > 100 | > 100 | > 100 | > 100 | –
Cc1ccc(S(=O)(=O)ON2C(=O)c3c(N)c(C#N)c(-c4ccccc4)c(-c4ccccc4)c3C2=O)cc1 | 34.8 | 29.8 | 52.4 | > 100 | – | 38.7 | 32.2 | > 100 | 37.4 | 30.8 | 62.4 | – | –
COc1ccccc1N1C(=O)CSC1c1cc(OC)c(OC)c(OC)c1 (stereo not given) | 98.3 | > 100 | > 100 | > 100 | > 100 | > 100 | 44.7 | > 100 | > 100 | > 100 | > 100 | > 100 | –
C=CC(OC(=O)C(C)C)c1ccc(OC(=O)C(C)C)cc1 (stereo not given) | 31.2 | 18.9 | 33.8 | 28.6 | 51.4 | 39 | 25.9 | 30.9 | 12.2 | 20.7 | 54.8 | 22.6 | –
COC(=O)c1ccc(C)cc1C1CN=NC12Cc1cc(C)ccc1C2=O (stereo not given) | > 85.7 | > 92.6 | 98.7 | > 68.1 | 66.5 | 88 | 6.11 | > 65.4 | 24 | > 100 | 47.5 | > 100 | –
COC(=O)CC(CNC(=O)OCc1ccccc1)OCc1ccc(OC)cc1 (stereo not given) | > 100 | > 100 | > 100 | > 100 | > 100 | > 100 | > 100 | > 100 | > 100 | > 100 | > 100 | – | –
O=C(NCCc1ccccc1)c1cc(/C=C/c2cc(O)ccc2O)ccc1O | 3.7 | 6.18 | 3.76 | 13.7 | 17.7 | 27.8 | 9.81 | 24.6 | 9.42 | > 45.5 | > 34.2 | 11.9 | –
c1ccc2nn(C3CCCO3)nc2c1 (stereo not given) | > 100 | > 100 | > 100 | > 100 | > 100 | > 100 | > 100 | > 100 | > 100 | – | > 100 | > 100 | –
O=C(/C=C/c1ccc(O)c(O)c1)NC(COC(=O)/C=C/c1ccc(O)c(O)c1)C(=O)O (stereo not given) | > 100 | > 100 | > 100 | > 100 | > 100 | > 100 | > 100 | > 100 | > 100 | > 100 | > 100 | > 100 | –
c1ccc2cc(CNCCCCNCCCNCc3ccc4ccccc4c3)ccc2c1 | 3.37 | 0.323 | 3.08 | 2.95 | 3.43 | 2.78 | 2.54 | 0.338 | 3.06 | 0.915 | 3.47 | 3.31 | –
Nc1nc(N)c2ncn(-c3ccccc3)c2n1 | > 100 | > 100 | > 100 | – | > 100 | > 100 | > 100 | – | > 100 | > 100 | > 100 | > 100 | 21.8 µM and > 100 µM
O=C1Nc2ccccc2/C1=C\c1c(-c2ccccc2)nc2n1CCS2 | 43.7 | 45.5 | > 100 | 42.8 | 66.3 | – | 65 | 41.9 | 39.3 | > 100 | 68.1 | > 100 | –
